Reference: article PMC9036659, “Boron-containing capsaicinoids” (RSC Advances, 2021)
≈ marks a conversion by molar mass, not a printed value. Like-named read-outs stand apart in the source and are kept apart here. Marks after values point to notes of the source that are not given here.

Columns and labels:
[1] = system: vancomycin-resistant Enterococcus; design: method as in doi:10.1139/cjc-2018-0193; details: data collected in previous study; Inactive = inhibition above 400 μM; cited from earlier work
MRSA = system: MRSA; design: method as in doi:10.1139/cjc-2018-0193; details: data collected in previous study; Inactive = inhibition above 400 μM; cited from earlier work
[2] = system: human breast adenocarcinoma cells (ATCC HTB-26 MDA-MB 231); test: Cytotoxicity assay (Alamar blue), HTB-26; format: cell-based; details: for IC50: Homo sapiens, HTB26, 72 h incubation, average ± SD, Inactive = inhibition above 300 μM, read-out: IC50 HTB (cancer cell line)
Method: (§1) The cells (human foreskin BJ fibroblast cells (ATCC CRL-2522), green monkey kidney cells Vero (ATCC CCL-81), human breast adenocarcinoma cells (ATCC HTB-26 MDA-MB 231), human breast adenocarcinoma cells (MCF7 ATCC HTB-22), and human colorectal carcinoma cells (HCT116 ATCC CCL-247)) were grown to 80% confluency, the cells were counted, diluted, and plated into treated 96-well cell culture plates. The BJ fibroblast and Vero cells were plated at a cell density of 10 000 cells per well and the HTB26, HCT116 and MCF7 cells were plated at cell density of 5000 cells per well in 90 μL of respective growth medium (without the addition of antibiotics) and incubated for 24 h to allow cells to adhere to the plates before treatment. Pure compounds were tested in triplicate in serial dilutions of seven concentrations ranging from 2 to 128 μg mL^−1 per well (final well volume of 100 μL, 1% DMSO per well). Each of the cell lines were incubated at 37 °C in a humidified atmosphere of 5% CO2; the BJ fibroblast and Vero cells for 24 h and the HTB-26, HCT116 and MCF7 cells for 72 h. Each plate contained four uninoculated positive controls, four untreated negative controls, and one column containing a concentration range for doxorubicin. Alamar blue was added, 24 h after the treatment, and fluorescence was monitored using a Cytation Gen 5 plate reader using 560 nm Ex/590 Em both at time zero and 4 h after Alamar blue addition. The inferred percentage of cell viability relative to vehicle control wells were calculated after subtracting the time zero emission 590 nm measurement from the final reading and the IC50 was determined. […]
(§2) Cytotoxicity Assay Data Alamar blue was added, 24 h after the treatment, and fluorescence was monitored using a Cytation Gen 5 plate reader using 560 nm Ex/590 Em both at time zero and 4 h after Alamar blue addition. The inferred percentage of cell viability relative to vehicle control wells were calculated after subtracting the time zero emission 590 nm measurement from the final reading and the IC50 was determined.

[3] = system: human foreskin BJ fibroblast cells (ATCC CRL-2522); test: Cytotoxicity assay (Alamar blue), BJ; format: cell-based; details: for IC50 BJ (normal cell line) / IC50: 24 h incubation, average ± SD, Inactive = inhibition above 300 μM; for IC50: Homo sapiens, Fibroblast, read-out: IC50 BJ (normal cell line)
Method: as §1, §2

[4] = system: human colorectal carcinoma cells (HCT116 ATCC CCL-247); test: Cytotoxicity assay (Alamar blue), HCT116; format: cell-based; details: for IC50: Homo sapiens, HCT-116, 72 h incubation, average ± SD, Inactive = inhibition above 300 μM, read-out: IC50 HCT (cancer cell line)
Method: as §1, §2

[5] = system: human breast adenocarcinoma cells (MCF7 ATCC HTB-22); test: Cytotoxicity assay (Alamar blue), MCF7; format: cell-based; details: for IC50: Homo sapiens, MCF7, 72 h incubation, average ± SD, Inactive = inhibition above 300 μM, read-out: IC50 MCF7 (cancer cell line)
Method: as §1, §2

[6] = system: Staphylococcus warneri (ATCC 17917); test: Antimicrobial assay, S. warneri (OD600); format: cell-based; details: for MIC90 / IC50: Staphylococcus warneri; for MIC90: read-out: S. warneri MIC90; for IC50: read-out: S. warneri IC50
Method: (§3) The microorganisms (methicillin-resistant S. aureus MRSA 310, vancomycin-resistant E. faecium VRE 379, S. warneri (ATCC 17917), P. vulgaris (ATCC 12454), P. aeruginosa (ATCC 14210), and C. albicans (ATCC 14035)) were grown overnight on agar media. The following day the cultures were transferred into 0.9% saline water into a sterile glass tube. Using the McFarland reader, the turbidity was determined and further diluted into their respective media. The pure compounds were tested at seven different concentrations ranging from 2 to 128 μg mL^−1 in triplicate. Samples were plated into 96 well plates (10 μL in 20% DMSO) and then diluted pathogen (90 μL) was pipetted into the pre-prepared sample plates yielding 5 × 10^5 cfu mL^−1 with a final volume of 100 μL. Antibiotics that are active against specific pathogens were used as positive controls. The plates were incubated into a 37 °C incubator for 22 h. Growth of S. warneri. P. vulgaris, P. aeruginosa and C. albicans were measured by reading optical density (OD600), or in the case of slow growing microorganisms (MRSA and VRE), PrestoBlue was used to assess metabolic activity by measuring fluorescence (535–560)/(590–615) (excitation/emission) using a Thermo Scientific Varioskan Flash plate reader at time zero and then again after incubation of the plates for 22 h at 37 °C. After subtracting the time zero OD600 from the final reading, the percentages of microorganism survival relative to vehicle control wells were calculated. […]
(§4) Antimicrobial Assay Data Growth of S. warneri. P. vulgaris, P. aeruginosa and C. albicans were measured by reading optical density (OD600), or in the case of slow growing microorganisms (MRSA and VRE), PrestoBlue was used to assess metabolic activity by measuring fluorescence (535-560)⁄(590-615) (excitation/emission) using a Thermo Scientific Varioskan Flash plate reader at time zero and then again after incubation of the plates for 22 h at 37 °C. After subtracting the time zero OD600 from the final reading, the percentages of microorganism survival relative to vehicle control wells were calculated. […]

[7] = system: vancomycin-resistant Enterococcus faecium VRE 379; test: Antimicrobial assay, VRE (PrestoBlue fluorescence); format: cell-based; details: for MIC90 / IC50 / VRE MIC90 / VRE IC50: 22 h, 37 °C, Inactive = inhibition above 300 μM; for IC50 / VRE IC50: average ± SD
Method: as §3, §4

[8] = system: methicillin-resistant Staphylococcus aureus MRSA 310; test: Antimicrobial assay, MRSA (PrestoBlue fluorescence); format: cell-based; details: for IC50 / MIC90: Staphylococcus aureus, MRSA; for IC50 / MIC90 / MRSA MIC90: 22 h; for IC50: read-out: MRSA IC50; for MIC90: read-out: MRSA MIC90
Method: as §3, §4

[9] = system: green monkey kidney cells Vero (ATCC CCL-81); test: Cytotoxicity assay (Alamar blue), Vero; format: cell-based; details: for IC50 Vero (normal cell line) / IC50: 24 h incubation, average ± SD, Inactive = inhibition above 300 μM; for IC50: Chlorocebus sabaeus, Vero, read-out: IC50 Vero (normal cell line)
Method: as §1, §2

[10] = ATCC17917, 22 h, 37 °C, Inactive = inhibition above 300 μM
[11] = ATCC17917, 22 h, 37 °C, average ± SD, Inactive = inhibition above 300 μM
[12] = 37 °C, average ± SD, Inactive = inhibition above 300 μM
[13] = 37 °C, concentration for 90% growth inhibition, Inactive = inhibition above 300 μM
[14] = 22 h, 37 °C, Inactive = inhibition above 300 μM
[15] = 22 h, 37 °C, average ± SD, Inactive = inhibition above 300 μM

Row | SMILES | IC50 [8, 12] [µM] | VRE MIC90 [7] | VRE IC50 [7] | MRSA MIC90 [8, 13] | cytotoxic activity against HTB-26 MDA-MB 231 (in words) [2] | IC50 [2] [µM] | cytotoxic activity against HCT116 (in words) [4] | IC50 [4] [µM] | cytotoxic activity against MCF7 (in words) [5] | IC50 [5] [µM] | antimicrobial activity against MRSA (in words) [8] | IC50 [3] [µM] | IC50 [9] [µM] | further results
1 | COc1cc(CNC(=O)CCCC/C=C/C(C)C)ccc1O [Capsaicin] |  |  |  |  |  |  |  |  |  |  |  |  |  | VRE IC50 [1]: Inactive; VRE MIC90 [1]: Inactive; MRSA IC50 (MRSA): Inactive; MRSA MIC90 (MRSA): Inactive
2 | COc1cc(CNC(=O)CCCCB2OC(C)(C)C(C)(C)O2)ccc1OCc1ccccc1 [Compound 8a] |  |  |  |  |  |  |  |  |  |  |  |  |  | VRE IC50 [1]: Inactive; VRE MIC90 [1]: Inactive; IC50 (MRSA): 107 µM; MRSA MIC90 (MRSA): Inactive
3 | COc1ccc(CN(C(=O)CCCCCCCCB2OC(C)(C)C(C)(C)O2)c2ccccc2)cc1OC [Compound 32, N-(3,4-dimethoxybenzyl)-N-phenyl-9-(4,4,5,5-tetramethyl-1,3,2-dioxaborolan-2-yl)nonamide] | 154 ± 37.1 | Inactive | Inactive | Inactive | unselective cytotoxic effects | 42.6 ± 1.8 | unselective cytotoxic effects | 80.1 ± 3.9 | unselective cytotoxic effects | 68.5 ± 15.1 | only active against MRSA | 112 ± 10 | 77.1 ± 8.4 | cytotoxic activity against BJ (in words) [3]: unselective cytotoxic effects; S. warneri MIC90 [6, 14]: Inactive; S. warneri IC50 [6, 15]: Inactive; cytotoxic activity against Vero (in words) [9]: unselective cytotoxic effects
4 | COc1cccc2c1C(=O)c1c(O)c3c(c(O)c1C2=O)C[C@@](O)(C(=O)CO)C[C@@H]3O[C@H]1C[C@H](N)[C@H](O)[C@H](C)O1 [Doxorubicin, reference compound] |  |  |  |  |  | 0.4 ± 0.2 |  | < 0.00012 |  | 0.2 ± 0.2 |  | > 14.7 | > 14.7 | 
5 | CO[C@H]1/C=C/O[C@@]2(C)Oc3c(C)c(O)c4c(O)c(c(/C=N/N5CCN(C)CC5)c(O)c4c3C2=O)NC(=O)/C(C)=C\C=C\[C@H](C)[C@H](O)[C@@H](C)[C@@H](O)[C@@H](C)[C@H](OC(C)=O)[C@@H]1C [Rifampicin, reference compound] |  |  |  |  |  |  |  |  |  |  |  |  |  | MIC90 [7]: 2.4 µM (≈ 1.98 µg/mL); IC50 [7]: 1.2 ± 0.1 µM
6 | CN[C@H](CC(C)C)C(=O)N[C@H]1C(=O)N[C@@H](CC(N)=O)C(=O)N[C@H]2C(=O)N[C@H]3C(=O)N[C@H](C(=O)N[C@H](C(=O)O)c4cc(O)cc(O)c4-c4cc3ccc4O)[C@H](O)c3ccc(c(Cl)c3)Oc3cc2cc(c3O[C@@H]2O[C@H](CO)[C@@H](O)[C@H](O)[C@H]2O[C@H]2C[C@](C)(N)[C@H](O)[C@H](C)O2)Oc2ccc(cc2Cl)[C@H]1O [Vancomycin, reference compound] |  |  |  | 1.4^a μM |  |  |  |  |  |  |  |  |  | IC50 ([6]; ATCC17917, 22 h): 0.3 ± 0.1 µM; MIC90 ([6]; ATCC17917, 22 h): 0.3 µM (≈ 0.435 µg/mL); IC50 [8]: 0.5 ± 0.1 µM; MIC90 [8]: 1.4 µM (≈ 2.03 µg/mL)

The next lines start with results.

Row | IC50 [8, 12] [µM] | VRE MIC90 [7] | VRE IC50 [7] | MRSA MIC90 [8, 13] | SMILES | cytotoxic activity against HTB-26 MDA-MB 231 (in words) [2] | IC50 [2] [µM] | cytotoxic activity against HCT116 (in words) [4] | IC50 [4] [µM] | cytotoxic activity against MCF7 (in words) [5] | IC50 [5] [µM] | antimicrobial activity against MRSA (in words) [8] | IC50 [3] [µM] | IC50 [9] [µM] | further results
7 | 70.6 ± 6.6 |  |  |  | CCCCCC(=O)N(Cc1ccc(OC)c(OC)c1)c1cccc(B2OC(C)(C)C(C)(C)O2)c1 [Compound 25, N-(3,4-dimethoxyphenylmethyl)-N-[3-(4,4,5,5-tetramethyl-1,3,2-dioxaborolan-2-yl)phenyl]-hexanamide] | selective but low to moderate activity | 76.1 ± 3.4 | selective but low to moderate activity | 137 ± 12 | selective but low to moderate activity | 118 ± 19.5 | moderate activity |  |  | IC50 BJ (normal cell line) [3]: Inactive; antimicrobial activity against S. warneri (in words) [6]: moderate activity; MIC90 [6, 10]: 137 µM (≈ 64 µg/mL); IC50 [6, 11]: 78.3 ± 39.8 µM; antimicrobial activity against VRE (in words) [7]: moderate activity; MIC90 [7]: 274 µM (≈ 128 µg/mL); IC50 [7]: 91.6 ± 6.8 µM; MIC90 [8, 13]: 137 µM (≈ 64 µg/mL); IC50 Vero (normal cell line) [9]: Inactive
8 | 13.2 | Inactive | Inactive |  | CCCCCCCCCC(=O)N(Cc1ccc(OC)c(OC)c1)c1cccc(B2OC(C)(C)C(C)(C)O2)c1 [Compound 26, N-(3,4-dimethoxyphenylmethyl)-N-[3-(4,4,5,5-tetramethyl-1,3,2-dioxaborolan-2-yl)phenyl]-decanamide] | unselective cytotoxic effects | 31.5 ± 2.7 | unselective cytotoxic effects | 44.3 ± 10.5 | unselective cytotoxic effects | 35.7 ± 16.2 | selectively active | 38.6 ± 1 | 47.2 ± 6.7 | cytotoxic activity against BJ (in words) [3]: unselective cytotoxic effects; S. warneri MIC90 [6, 14]: Inactive; S. warneri IC50 [6, 15]: Inactive; MIC90 [8, 13]: 15.3 µM (≈ 8.01 µg/mL); cytotoxic activity against Vero (in words) [9]: unselective cytotoxic effects
9 | 121 ± 2 | Inactive | Inactive | Inactive | COc1ccc(CN(C(=O)CCCCB2OC(C)(C)C(C)(C)O2)c2ccccc2)cc1OC [Compound 31, N-(3,4-dimethoxybenzyl)-N-phenyl-5-(4,4,5,5-tetramethyl-1,3,2-dioxaborolan-2-yl)pentanamide] | selective but low to moderate activity | 58 ± 3.5 | selective but low to moderate activity | 126 ± 16.5 | selective but low to moderate activity | 108 ± 30.9 | low activity |  |  | IC50 BJ (normal cell line) [3]: Inactive; antimicrobial activity against S. warneri (in words) [6]: low activity; MIC90 [6, 10]: 282 µM (≈ 128 µg/mL); IC50 [6, 11]: 135 ± 15.4 µM; IC50 Vero (normal cell line) [9]: Inactive
